# Paper PMC8704709, “Improved Anticancer Activities of a New Pentafluorothio-Substituted Vorinostat-Type Histone Deacetylase Inhibitor” (Pharmaceuticals, 2021)
# Legend:
# [1] = target: T1, human recombinant HDAC6 (Homo sapiens, UniProt Q9UBN7); experiment: Fluorogenic subtype-specific HDAC assay; assay type: biochemical; settings: cell-free enzymatic assay, 1–10 µM
# T1 construct: purchased BPS Biosciences, San Diego, CA, USA
# T1 sequence (Q9UBN7 1-1215): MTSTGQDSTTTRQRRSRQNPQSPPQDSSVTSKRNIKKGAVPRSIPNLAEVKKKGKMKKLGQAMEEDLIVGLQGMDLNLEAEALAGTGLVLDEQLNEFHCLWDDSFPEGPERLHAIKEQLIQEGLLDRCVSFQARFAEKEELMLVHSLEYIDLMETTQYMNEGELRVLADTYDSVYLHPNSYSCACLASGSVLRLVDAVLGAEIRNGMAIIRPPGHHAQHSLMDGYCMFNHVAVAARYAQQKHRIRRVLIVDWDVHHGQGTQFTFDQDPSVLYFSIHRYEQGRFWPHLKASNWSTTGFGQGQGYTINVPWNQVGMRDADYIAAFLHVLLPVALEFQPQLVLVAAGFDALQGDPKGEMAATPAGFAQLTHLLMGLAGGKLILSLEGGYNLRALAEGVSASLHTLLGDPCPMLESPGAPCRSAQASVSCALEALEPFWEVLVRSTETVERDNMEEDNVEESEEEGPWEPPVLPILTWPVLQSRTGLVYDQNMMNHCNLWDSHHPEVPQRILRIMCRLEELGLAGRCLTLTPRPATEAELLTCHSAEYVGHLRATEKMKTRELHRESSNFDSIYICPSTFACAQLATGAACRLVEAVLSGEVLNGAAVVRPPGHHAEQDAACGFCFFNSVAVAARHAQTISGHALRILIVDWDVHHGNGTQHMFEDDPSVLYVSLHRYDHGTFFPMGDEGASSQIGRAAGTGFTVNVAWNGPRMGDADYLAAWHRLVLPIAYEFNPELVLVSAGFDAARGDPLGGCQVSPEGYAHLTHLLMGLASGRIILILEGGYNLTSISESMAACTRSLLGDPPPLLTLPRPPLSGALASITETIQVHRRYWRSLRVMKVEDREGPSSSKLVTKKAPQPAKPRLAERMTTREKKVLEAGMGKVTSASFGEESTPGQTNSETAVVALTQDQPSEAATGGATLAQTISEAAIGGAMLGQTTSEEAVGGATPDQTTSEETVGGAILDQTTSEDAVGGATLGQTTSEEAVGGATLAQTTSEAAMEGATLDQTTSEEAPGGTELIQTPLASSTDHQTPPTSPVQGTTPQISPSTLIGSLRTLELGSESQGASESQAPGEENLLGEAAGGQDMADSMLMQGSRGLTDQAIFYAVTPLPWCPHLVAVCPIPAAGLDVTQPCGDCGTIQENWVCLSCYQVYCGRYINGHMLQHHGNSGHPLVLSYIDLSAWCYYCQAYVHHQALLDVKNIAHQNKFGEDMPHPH
# [2] = system: DU145 prostate tumor cells; experiment: Scratch assay (migration); assay type: cell-based, human; settings: 5 µM and 10 µM, 24 h
# Experimental: To investigate the anti-migratory effects of SF5-SAHA scratch assays were performed as described. In brief, cells were grown to sub-confluency in 6-well plates. The cell monolayer was then scratched using a pipet tip. Cells at the edge of this artificial gap migrate into the cell-free area to close the gap in a time-dependent manner. DU145 cells were seeded at a density 1.5 × 10^5 cells/well and treated with SF5-SAHA (0–10 µM) for 24 h and bright-field images were taken before and after 12 h and 24 h of treatment using a an EVOS M5000 microscope (Thermo Fischer Scientific, Waltham MA, USA). The experiments were performed n = 3.
# [3] = system: DU145 cells; experiment: Western blot in DU145 cells (acetyl-H3, PARP, EGFR, P-mTOR); assay type: cell-based, human
# Experimental: (§1) Western blots were performed as described earlier. Cells were seeded in 100 mm petri dishes, grown to almost confluency, treated for 24 h, washed and frozen, followed by lysis with RIPA Buffer, added with one cOmplete™ Mini protease Inhibitor tablet/10 mL (Roche), and quantification with Pierce^TM BCA Protein Assay Kit (Thermo Fisher Scientific). Thereafter protein levels were normalized to untreated controls so equal protein loading of 20 µg/lane. Laemmli Buffer and β-mercaptoethanol were added before probes were desaturated at 96 °C for 10 min. First, 7.5% or 12% SDS gels (Biorad, Munich, Germany) were loaded with proteins and electrophoresis was done. Thereafter, proteins were transferred to activated polyvinylidene difluoride membranes (PVDF) by electroblotting. Finally, the membranes were blocked with 1% BSA and incubated with primary antibodies over night at 4 °C.
# Blots were washed three times with 1% TBS-Tween and incubated with anti-mouse or anti-rabbit peroxidase-coupled anti-IgG secondary antibodies (1:5000–1:10,000) at room temperature for 60 min. Subsequently, antibody bondage was illustrated using Clarity and Clarity Max ECL Western Blotting Substrates (Biorad, Munich, Germany) for detection and Celvin-S developer (Biostep, software SnapAndGo Vs 1.8.1) for development. […] Values were normalized to β-actin expression, which served as a loading control and compared to untreated control expressions which was set at 1. The mean ± SEM of the relative values to control are illustrated with Graph Pad Prism 8.
# [4] = system: DU145 cells; experiment: Cytosolic ROS formation (CellROX Orange fluorescence microscopy); assay type: cell-based, human; settings: 6–24 h
# Experimental: (§2) Untreated cells incubated with 1.6 mM H2O2 for 30 min served as positive controls. CellROX® Orange reagent (1 µM) was applied, when adding the test compounds. Formation of ROS was measured after 3 h, 6 h, 12 h (not shown) and 24 h using ZOE™ Fluorescent Cell Imager (Biorad, Munich, Germany). n = 3 independent experiments performed in triplicate for each condition.
# [5] = system: Hep-G2 cells; experiment: as above; assay type: cell-based, human; settings: 6–24 h
# Experimental: as §2
# [6] = system: T-cell leukemia/lymphoma cells (Jurkat, Hut78, SMZ1, SupT11); experiment: Western blot in T-cell leukemia/lymphoma cells (acetyl-H3, acetyl-α-tubulin); assay type: cell-based, human; settings: 24 h
# Experimental: as §1, with “°C. […] Only the Jurkat cells had already a high level of α-tubulin in untreated cells and, thus, drug-induced changes were not detectable in these cells.” for “°C.”
# Blots were washed three times with 1% TBS-Tween and incubated with anti-mouse or anti-rabbit peroxidase-coupled anti-IgG secondary antibodies (1:5000–1:10,000) at room temperature for 60 min. […]
structure (smiles),measurement,setting,value
O=C(CCCCCCC(=O)Nc1ccc(S(F)(F)(F)(F)F)cc1)NO [SF5-SAHA],HDAC6 inhibition (comparison),[1],distinctly stronger HDAC6 inhibition than SAHA
same,migratory activity (scratch assay),[2],reduced migratory activity
same,phosphorylated mTOR (P-mTOR) level,[3],reduced the level of phosphorylated (activated) mTOR
same,EGFR protein expression,[3]; 24 h,significant downregulation of EGFR protein expression
same,PARP cleavage,[3]; 24 h,detection of PARP cleavage in treated DU145 cells
same,acetylated histone H3 level,[3]; 24 h,dose-dependent rise of H3 acetylation
same,cytosolic ROS formation,[4],pronounced time- and dose-dependent increase in cytosolic ROS
same,cytosolic ROS formation,[5],pronounced time- and dose-dependent increase in cytosolic ROS
same,acetyl-α-tubulin level,[6],increased in a dose-dependent way in three out of four tested cell lines
same,acetylated histone H3 level,[6],Dose-dependent increases in acetylated H3 were observed in all tested leukemia/lymphoma cancer cell lines
